Holding throughout (assay): DTP human tumour cell line panel, 48 h
In test [1] the test system is HCT-116 colon.
Test [2] deals with OVCAR-3 ovarian.
In test [3] the test system is HCT-15 colon.
The subject of test [4] is U251 CNS.
Test [5] relates to SNB-75 CNS.
Test [6] has as its system SK-OV-3 ovarian.
For test [7], the system named is UACC-62 melanoma.
Test [8] has as its system 786-0 renal.
For test [9], the system named is IGROV1 ovarian.
Test [10] concerns SN12C renal.

For seven molecules, TGI and GI50 results are on record in PubChem BioAssay (NCI).

SMILES strings stand for the structures.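 Cells were grown in 96-well plates and exposed to each compound for 48 hours at five concentrations; endpoints were interpolated linearly between bracketing concentrations, or set to the highest concentration if not reached. GI50 is the concentration that inhibits growth by half. TGI is the concentration that stops growth completely.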 A value given as a limit tells only on which side of the number the result lay.

Regarding `O=C1N[C@@H](O)[C@@H]2ON=C(c3ccccc3)[C@H]12`, the total growth inhibition concentration (TGI) in test [1], in test [2], in test [3], in test [4], in test [5] and in test [6] was more than 100 µM in each case. Further, the TGI in [7], in [8], in [9] and in test [10] was more than 100 µM each time.
As to `CC(=O)OCCOCBr`, the TGI in test [1], in test [2], in test [3], in [4], in test [5] and in test [6] was more than 100 µM each time. The TGI in test [7], in test [8], in test [9] and in [10] was more than 100 µM each time.
`COc1cc2c3c(n(CCCN4CCC(N)CC4)c(=O)c2cc1OC)-c1cc2c(cc1C3=O)OCO2`: the GI50 (usually the concentration that inhibits growth by half) in test [1] was 0.119 µM; in test [2], 0.765 µM; in test [3], 1.01 µM; in test [4], 0.307 µM; in test [5], 0.89 µM; in test [6], 3.47 µM. For the same molecule, the GI50 in [7] is 1.33 µM; in test [8] it was 0.763 µM; in test [9] it was 1.7 µM; in test [10], 0.338 µM. Besides, the TGI (commonly the concentration at which net growth stops) was determined as 0.807 µM in [1]; 1.9 µM in [2]; 6.01 µM in test [3]; 0.945 µM in test [4]; 5.56 µM in test [5]; 13.2 µM in test [6]. Moreover, the TGI in [7] is 6.34 µM; in test [8], 2.38 µM; in [9], 16 µM; in test [10] it was 1.08 µM.
As for `C=CCOc1c(Br)cc(Br)cc1Br`, the GI50 in test [1] is 11.4 µM; in test [2], 3.12 µM; in [3], 16.7 µM; in [4], 8.28 µM; in [5], 20.2 µM; in [6], 55.5 µM. Moreover, the GI50 was 4.8 µM in test [7], 34.1 µM in [8], 5.26 µM in [9] and 30 µM in [10]. Moreover, the TGI in test [1] was 66.2 µM; in [2], 17.2 µM; in test [3], more than 100 µM; in [4], more than 100 µM; in [5], more than 100 µM; in test [6] it was more than 100 µM. Moreover, the TGI is 91.7 µM in test [7], more than 100 µM in test [8], 67.1 µM in test [9] and more than 100 µM in [10].
As to `Clc1ccc(OCc2nnc3n2N=C(c2ccc(Cl)cc2Cl)CS3)c(Cl)c1`, the GI50 in test [1] is 15.2 µM; in test [2], 21.2 µM; in test [3], 12.7 µM; in test [4] it was 18.7 µM; in test [5], 12.2 µM; in test [6], 43 µM. Besides, the GI50 was 14.1 µM in test [7], 28.5 µM in [8], 20 µM in [9] and 14.2 µM in test [10]. Moreover, the TGI in [1] is 32.8 µM; in test [2], 73.1 µM; in test [3], 33.2 µM; in test [4], 46.8 µM; in [5] it was 48.7 µM; in test [6], more than 100 µM. The TGI in [7] was found to be 32.2 µM; in [8] it was 98.8 µM; in test [9], 52.9 µM; in test [10], 32.3 µM.
For `CCN(CCO)CCNc1ccc(C)c2sc3cc(Cl)ccc3c(=O)c12`, the GI50 was 1.34 µM in [1]; 1.72 µM in [2]; 0.538 µM in [3]; 1.4 µM in [4]; 1.97 µM in test [5]; 1.61 µM in [6]. Further, the GI50 in test [7] was 1.73 µM; in test [8], 1.41 µM; in [9], 1.64 µM; in [10], 1.47 µM. Moreover, the TGI in test [1] amounted to 2.72 µM; in test [2], 4.13 µM; in test [3], 1.85 µM; in test [4], 2.79 µM; in test [5], 5.44 µM; in [6], 3.09 µM. Further, the total growth inhibition concentration (TGI) in test [7] came out at 3.31 µM; in [8], 2.84 µM; in [9], 3.39 µM; in [10], 3.11 µM.
As to `CC(C)(C)c1nc2c(o1)C(=Nc1ccc(F)cc1)c1ccccc1C2=O`, the TGI in [1] worked out at 38.2 µM; in test [2], 7.62 µM; in test [3], 33.8 µM; in test [4], 19.7 µM; in test [5] it was 20 µM; in test [6], 45.9 µM. For the same molecule, the TGI in [7] was 6.62 µM; in test [8] it was 52.5 µM; in test [9], more than 66.7 µM; in test [10], 23.8 µM.
